Test results from patent publication US8461328B2, “Tricyclic heterocyclic compounds, compositions and methods of use thereof” (Genentech, Inc., priority 2010, dated 2013).

Tests used:
Type in all cases: biochemical
TYK2 = biological target: T1, TYK2 (Homo sapiens, UniProt P29597); assay: TYK2 inhibition (Table 4)
T1 construct: made in house; host or cells: SF9 insect cells (baculovirus)
T1 sequence (P29597 873-1187): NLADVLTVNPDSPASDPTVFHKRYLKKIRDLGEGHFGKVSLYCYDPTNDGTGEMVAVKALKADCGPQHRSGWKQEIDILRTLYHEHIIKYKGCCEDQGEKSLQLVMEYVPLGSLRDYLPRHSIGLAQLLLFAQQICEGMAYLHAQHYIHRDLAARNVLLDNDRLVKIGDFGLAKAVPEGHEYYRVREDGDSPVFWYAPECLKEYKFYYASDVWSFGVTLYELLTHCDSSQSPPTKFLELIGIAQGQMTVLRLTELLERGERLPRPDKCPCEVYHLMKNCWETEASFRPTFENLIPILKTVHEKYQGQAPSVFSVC

JAK1 = biological target: T2, JAK1 (Homo sapiens, UniProt P23458); assay: JAK1 inhibition (Table 4); settings: read-out: JAK1 Ki
T2 construct: made in house; host or cells: SF9 insect cells (baculovirus)
T2 sequence (P23458 852-1154): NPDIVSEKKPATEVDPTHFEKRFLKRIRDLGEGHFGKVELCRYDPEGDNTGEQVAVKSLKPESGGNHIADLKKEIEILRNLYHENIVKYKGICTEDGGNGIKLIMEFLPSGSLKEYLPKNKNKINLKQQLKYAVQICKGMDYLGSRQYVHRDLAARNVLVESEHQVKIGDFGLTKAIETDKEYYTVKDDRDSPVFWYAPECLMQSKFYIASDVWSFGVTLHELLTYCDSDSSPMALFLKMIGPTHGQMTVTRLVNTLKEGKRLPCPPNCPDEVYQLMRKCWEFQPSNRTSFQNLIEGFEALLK

JAK2 = biological target: T3, JAK2 (Homo sapiens, UniProt O60674); assay: JAK2 inhibition (Table 4); settings: read-out: JAK2 Ki
T3 construct: made in house; host or cells: SF9 insect cells (baculovirus)
T3 sequence (O60674 812-1132): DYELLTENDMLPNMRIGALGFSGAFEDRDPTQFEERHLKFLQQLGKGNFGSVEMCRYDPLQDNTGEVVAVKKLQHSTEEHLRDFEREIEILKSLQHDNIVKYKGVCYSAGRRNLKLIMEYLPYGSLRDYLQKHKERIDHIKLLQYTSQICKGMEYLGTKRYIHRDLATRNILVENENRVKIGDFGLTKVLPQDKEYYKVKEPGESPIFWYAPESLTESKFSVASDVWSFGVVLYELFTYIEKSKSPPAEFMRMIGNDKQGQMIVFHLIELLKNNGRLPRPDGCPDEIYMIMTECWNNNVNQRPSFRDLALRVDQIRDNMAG

JAK3 = biological target: T4, JAK3 (Homo sapiens, UniProt P52333); assay: JAK3 inhibition (Table 4); settings: read-out: JAK3 Ki
T4 construct: made in house; host or cells: SF9 insect cells (baculovirus)
T4 sequence (P52333 783-1124): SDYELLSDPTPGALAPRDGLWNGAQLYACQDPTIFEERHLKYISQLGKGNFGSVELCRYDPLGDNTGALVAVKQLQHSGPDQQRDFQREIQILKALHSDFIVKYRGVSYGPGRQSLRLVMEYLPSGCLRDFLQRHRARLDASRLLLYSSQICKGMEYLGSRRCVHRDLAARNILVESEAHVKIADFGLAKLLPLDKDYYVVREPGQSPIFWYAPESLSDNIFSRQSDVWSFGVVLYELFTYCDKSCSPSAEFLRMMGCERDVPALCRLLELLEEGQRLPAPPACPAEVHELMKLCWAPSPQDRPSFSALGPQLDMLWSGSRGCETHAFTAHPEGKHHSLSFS

Molecule | Ki (TYK2) | Ki (JAK1) | Ki (JAK2) | Ki (JAK3)
CC1CNCCC1n1cnc2cnc3[nH]ccc3c21 (racemic) [Example 312, 1-(3-Methyl-piperidin-4-yl)-1,6-dihydro-1,3,5,6-tetraaza-as-indacene] | 1050 nM | 47.6 nM | 415 nM | 626 nM
Cc1nc2cnc3[nH]ccc3c2n1[C@@H]1CCCN(Cc2ccccc2)C1 [Example 238, (R)-1-(1-Benzyl-piperidin-3-yl)-2-methyl-1,6-dihydro-1,3,5,6-tetraaza-as-indacene] | 171 nM | 29.3 nM | 26 nM | 85.2 nM
O=C(NC1CCC(n2nnc3cnc4[nH]ccc4c32)C1)OCC(F)(F)F (racemic) [Example 620, Racemic trans [3-(6H-1,2,3,5,6-Pentaaza-as-indacen-1-yl)-cyclopentyl]-carbamic acid 2,2,2-trifluoro-ethyl ester] | 91.4 nM | 1.64 nM | 8.15 nM | 20.5 nM
C[C@]1(O)CC[C@@H](n2nnc3cnc4[nH]ccc4c32)CC1 [Example 714, Cis-1-Methyl-4-(6H-1,2,3,5,6-pentaaza-as-indacen-1-yl)-cyclohexanol] | 28.6 nM | 5.29 nM | 9.89 nM | 105 nM
N#CCCN1CCC(n2c(C#N)nc3cnc4[nH]ccc4c32)CC1 [Example 293, 1-[1-(2-Cyano-ethyl)-piperidin-4-yl]-1,6-dihydro-1,3,5,6-tetraaza-as-indacene-2-carbonitrile] | 11.9 nM | 1.21 nM | 1.31 nM | 14 nM
FC(F)c1nc2cnc3[nH]ccc3c2n1C1CCNCC1 [Example 307, 2-Difluoromethyl-1-piperidin-4-yl-1,6-dihydro-1,3,5,6-tetraaza-as-indacene] | 373 nM | 18.2 nM | 228 nM | 202 nM
CC(C)OCCOCc1nc2cnc3[nH]ccc3c2n1C1CCN(CCC#N)CC1 [Example 843, 3-{4-[2-(2-Isopropoxy-ethoxymethyl)-6H-1,3,5,6-tetraaza-as-indacen-1-yl]-piperidin-1-yl}-propionitrile] | 631 nM | 84.2 nM | 80.8 nM | 169 nM
Cn1cc(CCc2nc3cnc4[nH]ccc4c3n2C2CCN(CCC#N)CC2)cn1 [Example 412, 3-(4-{2-[2-(1-Methyl-1H-pyrazol-4-yl)-ethyl]-6H-1,3,5,6-tetraaza-as-indacen-1-yl}-piperidin-1-yl)-propionitrile] | 545 nM | 21.6 nM | 78.7 nM | 125 nM
N#CCCN1CCC(n2c(CCNC(=O)c3ccccc3)nc3cnc4[nH]ccc4c32)CC1 [Example 380, N-(2-{1-[1-(2-Cyano-ethyl)-piperidin-4-yl]-1,6-dihydro-1,3,5,6-tetraaza-as-indacen-2-yl}-ethyl)-benzamide] | 142 nM | 3.98 nM | 36 nM | 62.6 nM
(1-Cyclohexyl-1,6-dihydro-1,2,3,5,6-tetraaza-as-indacen-2-yl)-methanol-d11 [Example 674] | 1.87 nM | 1.13 nM | 7.11 nM | 10.5 nM
CC(O)c1nc2cnc3[nH]ccc3c2n1C1CCCN(C(=O)C2CC2C)C1 (centres unmarked) [Example 796, {3-[2-(1-Hydroxy-ethyl)-6H-1,3,5,6-tetraaza-as-indacen-1-yl]-piperidin-1-yl}-(2-methyl-cyclopropyl)-methanone] | 617 nM | 55 nM | 746 nM | 884 nM
O=C(NCc1nc2cnc3[nH]ccc3c2n1C1CCCCC1)C1CCC1 [Example 924, Cyclobutanecarboxylic acid (1-cyclohyl-1,6-dihydro-1,3,5,6-tetraaza-as-indacen-2-ylmethyl)-amide] | 72.5 nM | 17.7 nM | 95.7 nM | 54.1 nM
CN(C)CC(=O)NCCc1nc2cnc3[nH]ccc3c2n1C1CCCCC1 [Example 510, N-[2-(1-Cyclohexyl-1,6-dihydro-1,3,5,6-tetraaza-as-indacen-2-yl)-ethyl]-2-dimethylamino-acetamide] | 20.8 nM | 3.91 nM | 51.1 nM | 132 nM
Cc1nc2cnc3[nH]ccc3c2n1C1CCN(CC(F)F)CC1 [Example 762, 1-[1-(2,2-Difluoro-ethyl)-piperidin-4-yl]-2-methyl-1,6-dihydro-1,3,5,6-tetraaza-as-indacene] | 4.88 nM | 0.89 nM | 2.65 nM | 5.51 nM
COc1ccc(CN2CCC[C@@H](n3cnc4cnc5[nH]ccc5c43)C2)cc1 [Example 46, 1-[(R)-1-(4-Methoxy-benzyl)-piperidin-3-yl]-1,6-dihydro-1,3,5,6-tetraaza-as-indacene] | 913 nM | 72.4 nM | 160 nM | 414 nM
N#CCCN1CCC(n2c(C(F)F)nc3cnc4[nH]ccc4c32)CC1 [Example 308, 3-[4-(2-Difluoromethyl-6H-1,3,5,6-tetraaza-as-indacen-1-yl)-piperidin-1-yl]-propionitrile] | 12.3 nM | 1.5 nM | 2.63 nM | 6.04 nM
CN(C)C(=O)CN1CCC(n2cnc3cnc4[nH]ccc4c32)CC1 [Example 62, N,N-Dimethyl-2-[4-(6H-1,3,5,6-tetraaza-as-indacen-1-yl)-piperidin-1-yl]acetamide] | 225 nM | 21.4 nM | 39.7 nM | 391 nM
C[C@@H](O)c1nc2cnc3[nH]ccc3c2n1[C@H]1CC[C@H](CC#N)CC1 [Example 644, Trans {4-[2-((R)-1-Hydroxy-ethyl)-6H-1,2,3,5,6-tetraaza-as-indacen-1-yl]-cyclohexyl}-acetonitrile] | 0.36 nM | 0.12 nM | 0.81 nM | 5.31 nM
O=C(NC1CCC(n2cnc3cnc4[nH]ccc4c32)CC1)OCc1cccnc1 (centres unmarked) [Example 744, [4-(6H-1,3,5,6-tetraaza-as-indacen-1-yl)-cyclohexyl]-carbamic acid pyridin-3-ylmethyl ester] | 86 nM | 7.15 nM | 17.8 nM | 89.2 nM
COCCC(=O)NCCc1nc2cnc3[nH]ccc3c2n1C1CCN(CCC#N)CC1 [Example 371, N-(2-{1-[1-(2-Cyano-ethyl)-piperidin-4-yl]-1,6-dihydro-1,3,5,6-tetraaza-as-indacen-2-yl}-ethyl)-3-methoxy-propionamide] | 178 nM | 4.82 nM | 35.5 nM | 48.5 nM
Cc1nc2cnc3[nH]ccc3c2n1[C@H]1CC[C@H](N2CCC(O)C2)CC1 (mixture of isomers) [Example 597, Racemic trans 1-[4-(2-Methyl-6H-1,2,3,5,6-tetraaza-as-indacen-1-yl)-cyclohexyl]-pyrrolidin-3-ol] | 497 nM | 30.8 nM | 126 nM | 823 nM
COC1CNCCC1n1nnc2cnc3[nH]ccc3c21 (racemic) [Example 536, 1-(3-Methoxy-piperidin-4-yl)-1,6-dihydro-1,2,3,5,6-pentaaza-as-indacene] | 235 nM | 32.5 nM | 61.2 nM | 1020 nM
O=C(Cc1ccccc1)N1CCC(n2cnc3cnc4[nH]ccc4c32)CC1 [Example 7, 2-Phenyl-1-[4-(6H-1,2,3,5,6-tetraaza-as-indacen-1-yl)-piperidin-1-yl]-ethanone] | 64.6 nM | 8.6 nM | 13.3 nM | 283 nM
N#Cc1ccc(N[C@H]2CC[C@H](n3cnc4cnc5[nH]ccc5c43)CC2)nc1 [Example 176, Trans 6-[4-(6H-1,2,3,5,6-Tetraaza-as-indacen-1-yl)-cyclohexylamino]-nicotinonitrile] | 24.3 nM | 2.16 nM | 7.05 nM | 95.8 nM
O=C(Cc1nc2cnc3[nH]ccc3c2n1C1CCCOC1)N1CCS(=O)(=O)CC1 (racemic) [Example 979, 1-(1,1-Dioxo-1$1%6&-thiomorpholin-4-yl)-2-[1-(tetrahydro-pyran-3-yl)-1,6-dihydro-1,3,5,6-tetraaza-as-indacen-2-yl]-ethanone] | 113 nM | 15.5 nM | 238 nM | 127 nM
O=C(CO)N1CCC(n2cnc3cnc4[nH]ccc4c32)CC1 [Example 437, 2-Hydroxy-1-[4-(6H-1,3,5,6-tetraaza-as-indacen-1-yl)-piperidin-1-yl]-ethanone] | 55.6 nM | 3.87 nM | 11.2 nM | 153 nM
CCCC1(n2c(C)nc3cnc4[nH]ccc4c32)CC1 [Example 423, 2-Methyl-1-(1-propyl-cyclopropyl)-1,6-dihydro-1,3,5,6-tetraaza-as-indacene] | 112 nM | 9.88 nM | 14.1 nM | 9.67 nM
C[C@@H](O)c1nc2cnc3[nH]ccc3c2n1C1(C)CCN(S(C)(=O)=O)CC1 [Example 585, (R)-1-[1-(1-Methanesulfonyl-4-methyl-piperidinyl)-1,6-dihydro-1,2,3,5,6-tetraaza-as-indacen-2-yl]-ethanol] | 67.3 nM | 9.46 nM | 63.4 nM | 88.3 nM
COCCC(=O)N[C@H]1CC[C@H](n2cnc3cnc4[nH]ccc4c32)CC1 [Example 573, trans 3-Methoxy-N-[4-(6H-1,3,5,6-tetraaza-as-indacen-1-yl)-cyclohexyl]-propionamide] | 91.5 nM | 4.62 nM | 10.7 nM | 69.5 nM
